This data set in a line: photoluminescence quantum yield (fraction); solvent given as SMILES.
Where [1] appears, read: in O=P(c1ccccc1)(c1ccccc1)c1ccccc1Oc1ccccc1P(=O)(c1ccccc1)c1ccccc1.

On to `COc1nc(Nc2ccc3c4c(cccc24)C(=O)c2ccccc2-3)nc(OC)n1`, for which the photoluminescence quantum yield came to 0.59 (in CC#N); 0.66 (in CC(C)=O); 0.38 (in CC(C)O); 0.22 (in CCCCOCCCC); 0.58 (in CCOC(C)=O); 0.39 (in CCOCC). The photoluminescence quantum yield (in CO) is 0.3; the photoluminescence quantum yield (in Cc1ccccc1) turned out to be 0.56; the photoluminescence quantum yield (in Clc1ccccc1) was found to be 0.66; the photoluminescence quantum yield (in N#Cc1ccccc1) amounted to 0.64; the photoluminescence quantum yield (in O=C1CCCCC1) was 0.67.

With `CCCCC1(CCCC)c2cc(C#Cc3ccc(/C=C(\C)c4ccccc4)cc3)ccc2-c2ccc(C#Cc3ccc(/C=C(\C)c4ccccc4)cc3)cc21`, where the note is “in C1CCOC1”, the photoluminescence quantum yield turned out to be 0.586.

`F[B-]1(F)Oc2ccccc2-c2n(-c3ccc(C(F)(F)F)cc3)c(-c3ccccc3)c(-c3ccccc3)[n+]21` came in with a photoluminescence quantum yield (in C1CCOC1) of 0.49.

The molecule `c1ccc2c(c1)c1ccccc1n2-c1ccc(-c2nnc(-c3ccc(-n4c5ccccc5c5ccccc54)cc3)o2)cc1` had a photoluminescence quantum yield under setting [1] of 0.93.

For the molecule `CC1(C)c2ccccc2N(c2ccc3c(c2)c2ccccc2c2nc4ccccc4nc32)c2ccccc21`, under “in c1cc(-c2cccc(-n3c4ccccc4c4ccccc43)c2)cc(-n2c3ccccc3c3ccccc32)c1”, the photoluminescence quantum yield turned out to be 0.42.

As for `F[B-]1(F)n2cccc2C(c2ccccc2)=C2C=CC=[N+]21`, the photoluminescence quantum yield (in Cc1ccccc1) came out at 0.053 and the photoluminescence quantum yield (in ClCCl) was determined as 0.74.

Consider `Cc1cc(-c2ccc(C(C)(C)C)cc2)cc(C)[o+]1`, for which the photoluminescence quantum yield stood at 0.36 (in CC#N) and 0.25 (in ClCCl).

The molecule `CC(C)(C)OC(=O)n1ccc2c3ccc4cccc5ccc(cc21)c3c54` displayed a photoluminescence quantum yield (in CCOC(C)=O) of 0.27.

Take `CC[n+]1nc2cc3c4c(c2c2cc(F)ccc21)CCCN4CCC3`: for the setting “in O”, the photoluminescence quantum yield was 0.34.

Consider `CC(=O)c1ccc(-c2cccc3ncc(-c4ccccc4)n23)cc1`, for which the photoluminescence quantum yield (in ClCCl) is 0.43.

For the molecule `CC[N+](CC)=c1ccc2c(-c3ccccc3C(=O)O)c3c(=O)oc4c5c6c(cc4c3oc-2c1)CCCN6CCC5`, the photoluminescence quantum yield by setting is: (in CCO) 0.01; (in ClC(Cl)Cl) 0.09.

Take `C[C@]12SC(=O)C=C1c1nc(-c3ccccc3)[nH]c1C1=CC(=O)S[C@@]12C`: the photoluminescence quantum yield (in CC#N) came out at 0.16.

In turn, `Cc1ccc2cc(C)ccc2c1` returned a photoluminescence quantum yield (in C1CCCCC1) of 0.59.

In turn, `CC(=O)c1cc(=O)n(C)c2cc(-c3ccc(N(C)C)cc3)sc12` returned a photoluminescence quantum yield (in ClCCl) of 0.18.

As to `CCC(C)(C)c1ccc(-c2ccc(-c3ccc(C(C)(C)CC)cc3)cc2)cc1`, the photoluminescence quantum yield (in C1COCCO1) was determined as 0.85.

Molecule `COc1cc(OC)c2cc(C#N)c(=N)oc2c1` registered a photoluminescence quantum yield (in ClCCl) of 0.047.

For the molecule `Cc1cc(C)nc(N)n1`, the photoluminescence quantum yield by setting is: (in CCO) 0.15; (in CO) 0.248; (in O) 0.048.

Regarding `COc1ccccc1C1=NC2c3cccc4cccc(c34)C2N1c1ccccc1` (centres undefined), the photoluminescence quantum yield (in Cc1ccccc1) stood at 0.01.

In turn, `COC(=O)[C@@]12N=N[C@@](C(=O)OC)(C3C4CCC(C4)C31)[C@@H]1CC12` (some centres undefined) displayed a photoluminescence quantum yield (in CC#N) of 0.041.

On to `O=C([O-])c1ccc(C2=c3cc4c5c(c3Oc3c2cc2c6c3CCCN6CCC2)CCC[N+]=5CCC4)c(C(=O)[O-])c1`, for which the photoluminescence quantum yield by setting is: (in CCO) 0.79; (in O) 0.6.

With `c1ccc(-c2nc(-c3ccccc3)nc(-n3c4ccccc4c4cc(-n5c6ccccc6c6ccccc65)cc(-n5c6ccccc6c6ccccc65)c43)n2)cc1`, the photoluminescence quantum yield under setting [1] amounted to 0.85.

Molecule `c1ccc(-c2nc(-c3ccc(N4c5ccccc5C(c5ccccc5)(c5ccccc5)c5ccccc54)cc3)cc(-c3ccc(N4c5ccccc5C(c5ccccc5)(c5ccccc5)c5ccccc54)cc3)n2)cc1` gave a photoluminescence quantum yield (in Cc1ccccc1) of 0.5 and a photoluminescence quantum yield (in O=P(c1ccccc1)(c1ccccc1)c1ccc2oc3ccc(P(=O)(c4ccccc4)c4ccccc4)cc3c2c1) of 0.94.

`CC(C)(C)c1cc2cc(N(c3ccccc3)c3ccccc3)c3cc(C(C)(C)C)cc4cc(N(c5ccccc5)c5ccccc5)c(c1)c2c43` yielded a photoluminescence quantum yield (in CCCCCC) of 0.28.

Turning to `N#Cc1cc(C#N)cc(-n2c3ccccc3c3cc(-c4ccc5c(c4)c4ccccc4n5-c4cc(C#N)cc(C#N)c4)ccc32)c1`, the photoluminescence quantum yield reads like this: (in Cc1ccccc1) 0.5; under setting [1], 0.58.

In turn, `CC1(C)C(/C=C/C2=C(c3ccc(C(=O)O)cc3)C(=C/C=C3/N(CCCS(=O)(=O)[O-])c4ccc5ccccc5c4C3(C)C)/CCC2)=[N+](CCCS(=O)(=O)[O-])c2ccc3ccccc3c21` showed a photoluminescence quantum yield (in CO) of 0.088.

`CC(C)(C)c1ccc(-c2c3c(c(-c4ccccc4)c4cc5ccccc5cc24)Cc2c(c(-c4ccccc4)c4cc5ccccc5cc4c2-c2ccc(C(C)(C)C)cc2)C3)cc1`: for the setting “in ClCCl”, the photoluminescence quantum yield is 0.16.

For the molecule `COC(=O)c1ccccc1C#Cc1ccccc1NC(C)=O`, the photoluminescence quantum yield is, setting by setting: (in CC#N) 0.0002; (in ClCCl) 0.0003.

`O=C1c2ccccc2-c2nc3c(F)c(F)c(F)c(F)c3n21`: where the note is “in ClCCl”, the photoluminescence quantum yield is 0.22.

For the molecule `Fc1cccc(-[c+]2c3ccccc3oc3ccccc32)c1`, the photoluminescence quantum yield (in CC#N) is 0.18.

In turn, `C[Si](C)(C)C#Cc1c2c(=O)c3ccccc3c2c(C#C[Si](C)(C)C)c2c(=O)c3ccccc3c12` registered a photoluminescence quantum yield (in ClC(Cl)Cl) of 0.08.

With `COC(=O)C1=NNC(C(=O)OC)=C2c3ccccc3C(=O)c3ccccc3C12` (centres undefined), the photoluminescence quantum yield (in CC#N) came out at 0.32.

For the setting “in O”, `CN(C)c1ccc2c(c1)C(C)(C)C(=O)C=C2` returned a photoluminescence quantum yield of 0.13.

`CCCC1(CCC)c2cc(-c3ccco3)ccc2-c2ccc(-c3ccco3)cc21` had a photoluminescence quantum yield (in C1CCCCC1) of 0.86.

For `CC1=[N+]2C(=C(c3ccccc3)c3c4c5ccccc5c5ccccc5c4c(C)n3[B-]2(F)F)c2c1c1ccccc1c1ccccc21`, the photoluminescence quantum yield (in CCCCCC) is 0.94.

Consider `CNc1ccc2c(c1)-c1ccccc1C2=O`, for which the photoluminescence quantum yield (in C1CCCCC1) was 0.045, the photoluminescence quantum yield (in CC#N) came to 0.064, the photoluminescence quantum yield (in CCO) amounted to 0.0065 and the photoluminescence quantum yield (in c1ccccc1) was determined as 0.19.

The molecule `C(#Cc1ccc2ncsc2c1)c1ccc(N(c2ccccc2)c2ccccc2)cc1` registered a photoluminescence quantum yield (in Cc1ccccc1) of 0.23.

Take `F[B-]1(F)n2c(-c3ccccc3)cnc2-c2cccc[n+]21`: the photoluminescence quantum yield turned out to be 0.33 (in C1CCCCC1); 0.22 (in C1CCOC1); 0.24 (in C1COCCO1); 0.21 (in CC#N); 0.32 (in CCCCCC); 0.17 (in CO). Moreover, where the note is “in ClC(Cl)Cl”, the photoluminescence quantum yield was found to be 0.24.

On to `CN(C)c1ccc(C2=Nc3scc[n+]3[B-](F)(F)O2)cc1`, for which the photoluminescence quantum yield came to 0.99 (in C1CCOC1), 0.1 (in CC#N), 0.99 (in Cc1ccccc1) and 0.86 (in ClCCl).

Take `C[Si](C)(C)c1ccc2ccc3cccc4ccc1c2c34`: the photoluminescence quantum yield amounted to 0.23 (in CCCCCC), 0.22 (in CO) and 0.36 (in ClCCl).

Regarding `N#Cc1cc(-n2c3ccccc3c3ccccc32)c(-n2c3ccccc3c3cc(Br)ccc32)cc1C#N`, the photoluminescence quantum yield runs as follows: (in C1CCOC1) 0.061; (in c1ccc2c(c1)c1ccccc1n2-c1ccc(-c2ccc(-n3c4ccccc4c4ccccc43)cc2)cc1) 0.555.

On to `CCc1cccc(CC)c1-c1c2ccccc2c(-c2c(CC)cccc2CC)c2cc3ccccc3cc12`, for which, under “in ClCCl”, the photoluminescence quantum yield was 0.56.

On to `COC(=O)CCC1=CC(C#Cc2ccsc2)=[N+]2C1=Cc1c(CCC(=O)OC)cc(C#Cc3ccsc3)n1[B-]2(F)F`, for which the photoluminescence quantum yield (in ClCCl) came to 0.39.

Under “in C1CCOC1”, `O=Cc1ccc(C=C(c2ccccc2)c2ccccc2)cc1` returned a photoluminescence quantum yield of 0.039.

With `COc1ccc(/C=C/c2ccccc2)cc1OC`, the photoluminescence quantum yield was found to be 0.06 (in C1CCCCC1); 0.035 (in CC#N); 0.041 (in CC(C)O); 0.05 (in CCCCOCCCC); 0.046 (in CCOC(C)=O); 0.051 (in CCOCC).

On to `CCCC1(CCC)c2cc(-c3ccc(C(C)(C)C)cc3)ccc2-c2ccc(-c3ccc4c(c3)C(CCC)(CCC)c3cc(-c5ccc6c(c5)C(CCC)(CCC)c5cc(-c7ccc(C(C)(C)C)cc7)ccc5-6)ccc3-4)cc21`, for which the photoluminescence quantum yield (in C1CCCCC1) was 0.9.

Take `Fc1ccccc1-c1nc2sc3ccccc3c2s1`: the photoluminescence quantum yield (in CS(C)=O) amounted to 0.64.

Turning to `CCN(CC)c1ccc2c(C#N)c(/C=C(\C#N)c3nc4ccccc4o3)c(=O)oc2c1`, the photoluminescence quantum yield runs as follows: (in C1COCCO1) 0.0328; (in CC#N) 0.0658; (in CCO) 0.0144; (in CCOC(C)=O) 0.0434; (in CO) 0.0121; (in Cc1ccccc1) 0.101. The photoluminescence quantum yield (in ClCCl) was determined as 0.105.

`N#Cc1cc(/C=C/c2ccc(/C=C/c3ccc(N(c4ccccc4)c4ccccc4)cc3)c(C#N)c2)ccc1/C=C/c1ccc(N(c2ccccc2)c2ccccc2)cc1` returned a photoluminescence quantum yield (in ClCCl) of 0.32.

In the case of `c1ccc(-n2nc(-c3ccc(N4c5ccccc5Sc5ccccc54)cc3)nc2-c2ccccn2)cc1`, under “in ClCCl”, the photoluminescence quantum yield came out at 0.0562.

Turning to `CN1/C(=C/C=C(/C=C/c2sc3ccccc3[n+]2C)c2cccc(C(F)(F)F)c2)Sc2ccccc21`, the photoluminescence quantum yield came out at 0.12 (in CCO), 0.06 (in CO) and 0.24 (in CS(C)=O).

Consider `Cc1ccc([C@@H]2C[C@](O)(c3ccccn3)C[C@](O)(c3ccccn3)[C@H]2C(=O)c2ccc(N(c3ccccc3)c3ccccc3)cc2)cc1`, for which the photoluminescence quantum yield came to 0.54 (in C1CCOC1); 0.02 (in CC#N); 0.01 (in CCO); 0.44 (in CCOC(C)=O); 0.03 (in CN(C)C=O); 0.27 (in ClCCl). Besides, the photoluminescence quantum yield (in c1ccccc1) was found to be 0.97.
